| melting point | SMILES |
| --- | --- |
| 269 to 270 °C | COc1cccc(Sc2c(O)c3c(Cl)cc(Cl)cc3[nH]c2=O)c1 |
| 260 to 262 °C | FC(F)(F)Oc1ccc(Nc2nc(-c3ccccc3)cc(N3CCOCC3)n2)cc1 |
| 171 to 172 °C | CC(C)[C@H](CC(N)=O)NC(=O)OCc1ccccc1 |
| 155 to 157 °C | Nc1nc2ccc(C(O)C(CO)N3CCC(Cc4ccccc4)CC3)cc2s1 (configuration not stated) |
| 240 to 241 °C | NS(=O)(=O)c1cc(C(=O)O)cc(NCCCC(=O)O)c1Oc1ccccc1 |
| 195 to 199 °C | Oc1ncccc1C1(O)CCN(CC23CC(c4ccccc42)c2ccccc23)CC1 |
| 161 to 165 °C | CC(=O)ON=C(N)c1ccc(C(=O)N2CCN(C(=O)[C@@H]3CCCN3S(=O)(=O)c3ccc(Cl)c(COc4cccc5ncc(C)nc45)c3Cl)CC2)cc1 |
| 132 to 134 °C | CCCCCNC(=O)N1CCC(c2nc(C3=NOC(c4ccccc4)C3)cs2)CC1 (configuration not stated) |
| 240 to 241 °C | C#Cc1cccc(Nc2ncnc3c2ccn3CCOCCOC)c1 |
| 236 to 240 °C | O=C(CC(=O)c1ccc(-c2ccccc2)cc1)Nc1ccc(OCCN2CCCC2)c(C(=O)O)c1 |
| 191 °C | COC(=O)C1=C(C)NN=C(c2cccs2)C1c1cccc(Cl)c1 (configuration not stated) |
| 170 to 172 °C | OC(CSc1ccnc2ccccc12)c1ccc2ccccc2c1 (configuration not stated) |
| 197 to 198 °C | COCCOc1cc2ncnc(NC3=CC(=O)C(N(C)c4ccc(OC)cc4)=CC3=O)c2cc1OC |
| 175 to 178 °C | CCc1nc2c(N)nc3ccccc3c2o1 |
| 218 to 220 °C | COC(=O)CCn1c2ccc(O)cc2c2c3c(c(-c4ccccc4Cl)cc21)C(=O)NC3=O |
| 176 to 178 °C | O=C(Cn1c(-c2ccc(Cl)cc2)nc2cccnc21)N1CCCCC1 |
| 91 to 93 °C | CCC(CC)CCc1nn(C)c2cc(C(=O)OC)ccc12 |
| 120 °C | O=C(c1ccc(-c2cnc3c(c2)N(Cc2ccccc2)CCN3)cc1)N1CCC(N2CCCC2)CC1 |
| 248 to 249 °C | CC(C)n1nc(-c2sc(NC(=O)c3c(Cl)cccc3Cl)nc2-c2ccccc2)ccc1=O |

| melting point | SMILES |
| --- | --- |
| 222 to 224 °C | COc1cccc2c1CCC21NC(=O)c2ccccc21 (configuration not stated) |
| 209 to 214 °C | O=c1c2ccc(Cl)cc2[nH]n1Cc1ccccc1 |
| 222 to 223 °C | Cc1nc2c3c(c(C(=O)N4CCC4)cc2n1C)CCC1(Cc2ccccc2C1)N3 |
| 156 °C | N#Cc1cnc(Nc2ccc(OCCn3nccn3)cc2)nc1-c1ccccc1 |
| 125 to 126 °C | Cc1nn(-c2ccccn2)c2c1C(O)CC(C)(C)C2 (configuration not stated) |
| 130 to 132 °C | CN1CCN(c2cc(Cl)cc3c2c(=O)n(Cc2ccccc2O)c(=O)n3Cc2ccccc2)CC1 |
| 128 to 129 °C | N#Cc1c(Br)c(Br)n(C(=O)Oc2ccccc2)c1Br |
| 163 to 165 °C | O=C(O)c1ccccc1N1CCN(CC(O)COc2cccc3[nH]ccc23)CC1 (configuration not stated) |
| > 60 °C | CCCc1nc(CO)c(C(=O)OCOC(=O)C(C)(C)C)n1Cc1ccc(-c2ccccc2-c2nnn[nH]2)cc1 |
| 294 °C | Cn1cc(-c2cc(-c3cnc4[nH]ncc4c3)ccn2)n(-c2ccc(C(C)(C)C#N)cc2)c1=O |
| 71 to 73 °C | CCCCOc1ccc2nc(C(C)=O)c(O)cc2c1 |
| 254 to 256 °C | CC(=O)NCC=Cc1ccc2ncnc(Nc3ccc(Oc4ccc(C)nc4)c(Cl)c3)c2c1 |
| 191 to 193 °C | NS(=O)(=O)c1ccc(-n2nc(C(F)(F)F)c(Cl)c2-c2ccc(-c3cncs3)c(Cl)c2)cn1 |
| 218 to 220 °C | N#Cc1ccc(OCc2ccncc2)cc1OC(C(=O)O)c1ccccc1 (racemic) |
| 182 °C | Cn1cnnc1C(O)(c1ccc(Cl)cc1)c1ccc2c(c1)c(-c1cccc(Cl)c1)cc(=O)n2C (configuration not stated) |
| 189 to 191 °C | O=C(O)c1ccccc1-c1ccc(C(=O)N2Cc3ccc(C(=O)NCc4cccnc4)n3Cc3ccccc32)cc1 |
| 145 to 149 °C | CC1(C)CC(OC(=O)c2ccccc2)CC(C)(C)N1O |
| 145 °C | CCn1ncnc1COc1nn2c(-c3ccc(F)cc3F)nncc2c1C(C)(C)C |
| 95 °C | OC(COc1ccccc1Cl)(Cn1cncn1)Cn1cncn1 |

| melting point | SMILES |
| --- | --- |
| 122 to 124 °C | COCCNC(=O)c1ccc(C(=O)N2CCN(c3ncccc3NC(C)C)CC2)nc1 |
| > 300 °C | CCC(CC)c1ccc(Cl)c2nc3n(c12)CCN3c1ccc(Cl)cc1C(N)=O |
| 166 to 168 °C | O=C(O)c1cc2cccc(OCc3ccccc3)c2[nH]1 |
| 181 to 185 °C | CC(C)(C(=O)O)n1nc2ccc(NCCCN3CCC(OC(c4ccccc4)c4ccccc4)CC3)nn2c1=O |
| 92 to 93 °C | ClC(c1ccccc1)(c1ccccc1)c1ccc2ccccc2c1 |
| 140 to 141 °C | CCOC(=O)c1nc(-c2ccccc2F)c(-c2ccc(=O)n(C(C)C)n2)s1 |
| 134 °C | Oc1nnc2ccc3ccccc3n12 |
| 220 to 222 °C | COc1ccc(C(=O)N2CCc3cc(S(=O)(=O)N4CC(c5ccccc5)NC4=O)ccc32)cc1 (configuration not stated) |
| 94 °C | N#Cc1cc([N+](=O)[O-])ccc1OCC(F)(F)F |
| 182 to 183 °C | Cc1csc2c(-c3ccccc3)c(-c3ccc(Cl)s3)c(CC(=O)O)n12 |
| 226 °C | Cc1ccc(S(=O)(=O)NC(=O)OCCc2ccc(-n3c(C(C)(C)C)nc4c(C)nc(C)cc43)cc2)cc1 |
| 84 to 89 °C | FC(F)(F)/C(=C(\c1ccccc1)c1ccc(OCCN2CCOCC2)cc1)c1ccccc1 |
| 157 to 158 °C | COc1ccccc1Nc1cc(-c2c(-c3cccc(C)c3)nc3cccnn23)ccn1 |
| 74 °C | O=C(O)C(Cl)(Cl)CCCCCCCCCCCCSc1ccccc1 |
| 147 to 155 °C | CC#Cc1ccc(NC(=O)c2ccccc2NCc2ccncc2)cc1 |
| 99 to 100 °C | CCC(=O)Cc1cc2cc(OCCNC[C@H](O)COc3ccccc3)ccc2o1 |
| 152 °C | CN1C(=O)[C@@H](NC(=O)OC(C)(C)C)COc2ccccc21 |
| 160 °C | O=C1C(O)N(c2ccc(Oc3ccccc3)cc2)C(=S)N1c1ccccc1 (configuration not stated) |

The remaining lines, values behind:

| SMILES | melting point |
| --- | --- |
| CSc1ccc(NC(=O)C2(C)CC2)cc1C(F)(F)F | 97 to 98 °C |
| CCCOC(=O)Nc1cccc(NC(=O)C=C(C)OC)c1 | 115 °C |
| CCCc1cc2c(=O)[nH]c(C(=O)OCC)nc2s1 | 169 to 170 °C |
| Cc1cc(O)ccc1N1CCc2c1c1cccc(C)c1[nH]c2=O | 244 to 246 °C |
| Fc1ccc(-c2[nH]cc(C3=CC4CCC(C3)N4)c2-c2ccncc2)cc1 (configuration not stated) | 212 to 213 °C |
| Cc1nc(C#N)ccc1OC1SCC(O)C(O)C1O (configuration not stated) | 193 to 195 °C |
| CCCCCCCC(=O)c1ccc(CCC(C)(COC(C)=O)NC(C)=O)cc1 (configuration not stated) | 88 to 89 °C |
| COc1cccc2c1CC(COS(=O)(=O)c1ccc(C)cc1)CC2 (configuration not stated) | 53 to 58 °C |
| COc1ccc(-c2ccc(C(=O)Nc3cc4ncc(CN5CCCC5)cc4cc3F)c(F)c2)cc1 | 174 to 176 °C |
| CC(=O)OC1(C(=O)CCl)CCC2C3CCC4=CC(=O)CCC4(C)C3CCC21C (configuration not stated) | 219 to 221 °C |
| Cc1c(C(=O)Nc2ccc(-c3ccc(S(=O)(=O)NC(C(=O)O)C(C)C)cc3)cc2)oc2ccccc12 (configuration not stated) | 264 to 266 °C |
| OCC1OC(n2cnc3c(NN4CCCCC4)nc(F)nc32)C(O)C1O (configuration not stated) | 197 to 199 °C |
| O=C(O)[C@@H]1CCc2cc(F)ccc2O1 | 99.7 °C |
| CN1C(=O)Cc2c(Cl)cc(Cl)cc21 | 144 to 145 °C |
| Cc1oncc1C(=O)c1ccc(Cl)cc1 | 65 to 66 °C |
| Cc1cnc(-c2ccc(Cl)s2)nc1Cl | 137 °C |
| C#CCOC(=O)c1ccc(SC(C)CCCC(C)C)cc1 (configuration not stated) | 130 to 131 °C |
| CC(=O)Nc1cc(C(C)(C)C)c(SC2=C(O)CC(CCc3ccc(O)cc3)(C3CCCC3)OC2=O)cc1C (racemic) | 181 °C |
| Nc1cc(CBr)nn1-c1c(Cl)cc(C(F)(F)F)cc1Cl | 220 °C |
| COc1cc2c(c(OC)c1OC)-c1ccc(SC)c(=O)cc1C(N)CC2 (configuration not stated) | 168 to 170 °C |
| CC1(C(=O)N2CCOCC2)COC(c2nc(-c3ccc(F)cc3)c(-c3ccnc(S(C)(=O)=O)n3)[nH]2)OC1 (configuration not stated) | 264 to 266 °C |

| SMILES | melting point |
| --- | --- |
| CC(C)(C)OC(=O)NNc1ccc(N2C(=O)C=CC2=O)cn1 | 182 to 184 °C |
| Cc1cc(C)c(S(=O)(=O)NCC2CCN(S(=O)(=O)c3c(C)cc(C)cc3C)CC2)c(C)c1 | 202 to 204 °C |
| COC(=O)c1c(OC)cc(C=O)cc1OC | 113 to 114 °C |
| Cc1ccc(OC(C)C)c(-c2cc(=O)c3cc(C(=O)O)ccc3o2)c1 | 209 to 210 °C |
| COc1ccc(C(=O)c2c(-c3ccc(OC)cc3)sc3cc(OC)ccc23)cc1 | 119 to 120 °C |
| N#Cc1cc(/C=C/C(=O)Nc2ccc(Br)cc2)ccc1F | 205 to 210 °C |
| Cc1ccc(N=C=S)c(C)c1COC(=O)[C@H]1[C@@H](C=C(Cl)C(F)(F)F)C1(C)C (relative stereo) | 60 °C |
| COc1cc2c(cc1OC)NC1=C(C2)C(=O)N(C)CN1 | 225 to 230 °C |
| COC(=CCl)C1(O)CCC2C3CCC4=CC(=O)CCC4(C)C3=CCC21C (configuration not stated) | 197 to 199 °C |
| COc1ccc(OC(=O)Nc2cc(C(=O)O)cc(C(=O)O)c2)cc1 | > 300 °C |
| O=S(O)c1ccc2c(c1)CCCC2 | 82 to 85 °C |
| COn1cc(C#N)c(C#N)c1-c1ccc(Cl)cc1 | 126 to 127 °C |
| O=c1c2cccc3c2c(cn1C1CN2CCC1CC2)CC3 (racemic) | 146 to 147 °C |
| CC1=NN(c2cc(Cl)c(Sc3ccc(Cl)cc3)c(Cl)c2)C(=O)NC1 | 258 to 259 °C |
| COc1ccc(-c2ccc(C(=O)Nc3cc4ncc(CN5CCCC5)cc4cc3F)cc2)cc1 | 184 to 186 °C |
| Cc1c(C)c2c(c(C)c1NC(=O)c1ccc(F)cc1)C(c1ccccc1)C(C)(C)O2 (configuration not stated) | 156 to 158 °C |
| CN1C(=O)CC[C@]2(C)c3ccc(-c4ccc(F)cc4)cc3CC[C@@H]12 | 121 to 122 °C |
| CCCCCCCCCCCCc1nnn(CC(=O)O)n1 | 89 to 91 °C |
| CC(C)(CO)CCNC(=O)OC(C)(C)C | 75.5 to 76.5 °C |
| COc1ccc(C2=NN(CCCCCCN)C(=O)[C@H]3CC=CC[C@@H]23)cc1OC (relative stereo) | 141 to 143 °C |

— a melting point compilation (Tetko et al.; mined from patent text by program, amines drawn as free bases though some values may be those of a salt)
